Laboratory results taken from patent US20030083381A1, “Hair growth or hair formation controlling agents” (priority 2000, published 2003).
Where two headings read alike, the source gives them in different places.

Experiments:
EP4 Receptor = EP4 Receptor (Oryctolagus cuniculus, UniProt Q28691); assay: Magnus experiment using rabbit saphenous vein (relaxation of 40 mM KCl contraction); type: cell-based
Description: Magnus Experiment Using Rabbit Saphenous Vein
Investigation of agonistic activity to EP4 was carried out by an improved method of the method of Lydford et al. (S. J. Lydford et al., Br. J. Pharmacol. 117, 13-20 (1996)) using rabbit saphenous veins. That is, each rabbit was deeply anesthetized by administering pentobarbital (50 mg/kg) to auricular vein, and then sacrificed by bleeding by cutting carotid artery. Saphenous vein was carefully but quickly removed and transferred into Krebs solution (NaCl 118.1 mM, KCl 5.31 mM, MgSO4 1.01 mM, CaCl2 3.52 mM, NaH2PO4 1.09 mM, NaHCO3 25.0 mM, glucose 9.99 mM, pH 7.4) which was preliminarily saturated with 95% O2+5% CO2 mixed gas. The connective tissue and the fatty tissue of each saphenous vein were isolated using a scissors for ophthalmology to prepare a ring preparation with a width of about 4 mm. This ring preparation was mounted on a hook for blood vessels, and then suspended in a Magnus tube filled with Krebs solution aerated with 95% O2+5% CO2 mixed gas and kept at 37° C. The isometric tension of each blood vessel was recorded on a recorder through an isometric transducer. To each blood vessel, a base tension of 1.0 g was applied and the blood vessel tissue was stabilized for about 30 minutes until the baseline became stabilized. After the baseline became stable, the blood vessel was contracted with 40 mM KCl, and the shrinkage and washing were repeated until the contraction became stable. After the contraction with KCl became stable, a thromboxane antagonist S-145 (1000 nM) was applied previously and then cumulative application experiments of Compounds 1 to 7 were carried out. More specifically, the reactivity to PGE2 which was a positive control drug was measured, and after washing, the action of each compound was studied. The effectiveness of each drug was expressed in terms of the concentration (EC50) at which the rate of relaxation of the test drug to the contraction by 40 mM KCl was 50%. EC50 value was calculated by plotting logarithm of the concentration of each drug along the abscissa and plotting the rate of relaxation with respect to the contraction by 40 mM KCl along the ordinate, and by determining the concentration at which the height of contraction was 50% based on the linear area of the concentration-reaction curve in each experiment. [drawing 39]

epilated rabbit models [1] = assay: Hair-growth/generation test in young epilated rabbits (8 weeks old), subcutaneous, once a day from 2nd to 7th day; type: in vivo, New Zealand White rabbits; conditions: young rabbits 8 weeks old
Description: (§1) Hair-Growing or Hair-Generating Action
The test was carried out as follows. The hair on the back of each rabbit was removed and evacream was applied for a short time to the back so as to epilate the back. After wiping the epilated region with water, test compound was subcutaneously administered to the back at a dose of 0.25 ml/kg once a day from the second day to 7th day after epilation. The length of the hair was measured.

[2] = target: T1, human PGE2 receptor subtype EP4 (Homo sapiens, UniProt P35408); assay: Receptor binding experiment using PGE2 receptor subtype-expressing cells (3H-PGE2 displacement, membrane fractions); conditions: human PGE2 receptor subtypes EP2, EP3, EP4
T1 construct: expressed in transfected cells; host or cells: COS-7 cells, transient expression; membrane specimens
Description: Receptor Binding Experiment Using PGE2 Receptor Subtype-expressing Cells
The compound of the Formula (I) described above was tested for its selective binding activity to EP4 receptor by using PGE2 receptor subtype-expressing cells.
According to the reported method (Breyer,R. M. et al., J. Biol. Chem. 269,6163-6169(1994)), cloned human PGE2 receptor subtypes (EP3 and EP4) were transiently expressed by COS-7 cells. EP2 was stably expressed by CHO cells. These cells were prepared into membrane specimens. Each of the prepared membrane fractions (10 μg/tube) was incubated with a reaction solution containing ^3H—PGE2 at 30° C. for 1 hour. The reaction was terminated by iced buffer (10 mM MES(pH 6.0), 10 mM MgCl2, 1 mM EDTA), and the resultant was subjected to filtration by means of suction under reduced pressure to trap the bound ^3H-PGE2 on a glass filter (GF/C), followed by measurement of the radioactivity with a liquid scintillation counter.
The Kd value was determined from Scatchard plot according to the conventional method. Non-specific binding was determined in terms of the amount of bound radioactivity in the presence of an excess amount (5 μM) of non-labeled PGE2. […]
The dissociation constant Ki (nM) of Compound 1 was calculated according to the following equation: […]

epilated rabbit models [3] = assay: Hair-growth/generation test in epilated rabbits, subcutaneous, once a day from 2nd to 20th day; type: in vivo; conditions: for Length of New Hair (mm) / Rate of Hair-generated Area (%): mean ± standard error
Description: as §1
The test was carried out as follows. The hair on the back of each rabbit was removed with an electric clipper and evacream was applied for a short time to the back so as to epilate the back. After wiping the epilated region with water, test compound was subcutaneously administered to the back at a dose of 0.25 ml/kg (dissolved in 0.9% sodium chloride solution) once a day from the second day to 20th day after epilation. The state of generation of hair was observed and the length of the hair was measured.

[4] = relaxation of contraction by 40 mM KCl, thromboxane antagonist S-145 (1000 nM) present, read-out: EC50 (nM), agonistic activity to EP4 receptor in rabbit saphenous vein relaxation reaction

Chain of EP4 Receptor (Q28691 whole entry): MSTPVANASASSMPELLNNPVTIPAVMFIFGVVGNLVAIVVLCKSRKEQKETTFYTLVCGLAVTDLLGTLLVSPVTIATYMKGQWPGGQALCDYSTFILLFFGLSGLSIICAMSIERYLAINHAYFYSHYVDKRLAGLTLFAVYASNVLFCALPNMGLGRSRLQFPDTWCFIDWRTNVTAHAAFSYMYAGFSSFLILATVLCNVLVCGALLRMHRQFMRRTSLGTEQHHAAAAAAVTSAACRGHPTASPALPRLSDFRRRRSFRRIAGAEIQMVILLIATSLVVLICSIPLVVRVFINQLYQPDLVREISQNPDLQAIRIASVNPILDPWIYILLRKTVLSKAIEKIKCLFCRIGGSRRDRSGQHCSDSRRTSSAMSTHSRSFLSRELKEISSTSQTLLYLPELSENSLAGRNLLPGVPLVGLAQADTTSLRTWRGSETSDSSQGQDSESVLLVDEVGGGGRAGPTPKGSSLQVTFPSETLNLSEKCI
T1 sequence (P35408 whole entry): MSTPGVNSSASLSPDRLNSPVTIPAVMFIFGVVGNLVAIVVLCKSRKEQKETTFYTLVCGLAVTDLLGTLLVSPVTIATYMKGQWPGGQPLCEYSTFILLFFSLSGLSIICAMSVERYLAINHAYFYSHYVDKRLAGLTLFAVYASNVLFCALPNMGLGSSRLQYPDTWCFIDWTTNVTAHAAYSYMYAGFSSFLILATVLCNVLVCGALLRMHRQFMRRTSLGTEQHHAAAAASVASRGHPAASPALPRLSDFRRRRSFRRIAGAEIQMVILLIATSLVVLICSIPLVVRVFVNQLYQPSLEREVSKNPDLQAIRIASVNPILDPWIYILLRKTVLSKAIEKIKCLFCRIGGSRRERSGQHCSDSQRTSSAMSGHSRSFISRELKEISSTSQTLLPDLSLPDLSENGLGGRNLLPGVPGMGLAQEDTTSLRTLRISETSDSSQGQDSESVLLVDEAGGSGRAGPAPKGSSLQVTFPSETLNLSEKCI

CC(C)(C(O)C=CC1C(O)CC2Oc3c(OCC(=O)O)cccc3C21)C1CCCCC1 (stereo not shown) [Compound 5]
EC50 (EP4 Receptor; [4]): 26 nM

O=C(O)CCc1cccc2c1OC1CC(O)C(C=CC(O)C(F)(F)C3CCCCC3)C21 (stereo not shown) [Compound 7]
EC50 (EP4 Receptor): 2 nM

O=C(O)CSc1cccc2c1OC1CC(O)C(C=CC(O)CC3CCCCC3)C21 (stereo not shown) [Compound 6]
EC50 (EP4 Receptor; [4]): 33 nM

OC(C=CC1C(O)CC2Oc3c(CCc4nnn[nH]4)cccc3C21)CC1CCCCC1 (stereo not shown) [Compound 2]
Length of New Hair (mm) (epilated rabbit models [1]; 0.03 mg/kg s.c., 7th day, mean ± standard error, p < 0.05 vs. control): 11.7 ± 0.5 mm
length of the new hair (in words) (epilated rabbit models [1]; s.c. once a day): increased
EC50 (EP4 Receptor; [4]): 3 nM

O=C(O)CCc1cccc2c1O[C@H]1C[C@@H](O)[C@H](/C=C/[C@@H](O)CC3CCCCC3)[C@@H]21 [Compound 1]
EC50 (EP4 Receptor): 6 nM
selectivity to EP4 receptor subtype (binding abilities to other receptor subtypes are low) [2]: high selectivity
Rate of Rabbits with 50% or More Hair-Generated Area (epilated rabbit models [3]; 0.03 mg/kg s.c., 20th day): 1/4
Length of New Hair (mm) (epilated rabbit models [3]; 0.03 mg/kg s.c., 20th day): 6.0 ± 0.6 mm
Rate of Hair-generated Area (%) (epilated rabbit models [3]; 0.03 mg/kg s.c., 20th day): 15.8 ± 13.2%
Rate of Hair-generated Area (%) (epilated rabbit models [3]; 0.1 mg/kg s.c., 20th day): 48.8 ± 13.6%
Length of New Hair (mm) (epilated rabbit models [3]; 0.1 mg/kg s.c., 20th day, p < 0.05 vs. control): 7.3 ± 0.5 mm
length of the new hair (in words) (epilated rabbit models [3]; epilated rabbits, s.c. once a day): increased

CC(C)(Cc1ccccc1)C(O)C=CC1C(O)CC2Oc3c(CCC(=O)O)cccc3C21 (stereo not shown) [Compound 4]
EC50 (EP4 Receptor): 7 nM

O=C(O)C=Cc1cccc2c1OC1CC(O)C(C=CC(O)CC3CCCCC3)C21 (stereo not shown) [Compound 3]
EC50 (EP4 Receptor): 6 nM
